Data published in patent US20250302728A1, “FRAGRANCE COMPOSITIONS AND PRODUCTS CONVEYING A POSITIVE MOOD” (SYMRISE AG, priority 2022, published 2025).

Legend:
subject's mood [1] = test: Actimood scoring (correlation of EmoChar and IRT values); format: in vivo, human
Experimental: (§1) 1. Sensorial and Emotional Evaluation of Fragrance Raw Materials Each fragrance was evaluated by 30 subjects. At each appointment, the subject discovered fragrances in one sequence of four fragrances and two sequences of three fragrances separated by a 10-minute break.
(§2) For each fragrance, the subject discovered each fragrance on a card strip for 10 seconds. Between each product, a rest-period of 2 minutes was carried out during which the subject smelt their own body odour by smelling their wrist and the subject drank a little bit of water as well.
Emochar™ is a system of emotional characterization, scoring 7 main emotional dimensions from 0 to 10: • Stimulation: focus, attention, and awakening. • Relaxation: serenity, relaxation and appeasing. • Sensual: arousing, sexy and erotic. • Pleasure: liking, “gourmand” and satisfaction. • Tenderness: gentleness and softness. • Joy: excitement, fun and enthusiasm. • Self-esteem: confidence and assurance
Actimood scores are based on a correlation of EmoChar™ and IRT values. The scores are classified on a scale from 0 (low impact on subject's mood) to 3 (high impact on subject's mood).
Each score is obtained according to an algorithm, mixing verbal and non-verbal responses of volunteers to a specific product, or stimulus in a given context. The algorithm was developed from extensive field data, and in accordance with scientific literature and validated biobehavioral patterns associated to various emotional states.

subject's mood [2] = test: Implicit response test (IRT); format: in vivo, human; design: scale not given here
Experimental: as §1
During those appointments, the subjects smelt the fragrances in a random way.
as §2
The evaluation is carried out in standardized lighting conditions and under a monitored temperature (temperature 21±1.5° C.).
Implicit response tests (IRTs) are a family of tests and assess the subjects' immediate, “gut instinct” responses the fragrance raw materials.
The alleged underlying processes are based on how neurosciences describe the way our brain processes information. Indeed, our brain processes information through two systems: System 2, which is slow and processes conscious information, and System 1, which is fast and processes non-conscious information.
The IRT tests are performed at a computer, where the following words appear on the computer screen: • Energizing • Relaxing • Attractive • Sensual • Joyful • Protective • Confident • Fresh • Well-being
The subject has to click on the screen with the computer mouse to indicate their accordance or not of the word with the tested fragrance. In addition, the times to click the button are recorded.

[3] = joyful mood (Table 6), scale 0 (low impact) to 3 (high impact)
[4] = self-confident mood (Table 9), scale 0 (low impact) to 3 (high impact)
[5] = sensual mood (Table 8), scale 0 (low impact) to 3 (high impact)
[6] = well-being mood (Table 10), scale 0 (low impact) to 3 (high impact)
[7] = relaxing and sleep enhancing mood (Composition 1, Table 3), scale 0 (low impact on subject's mood) to 3 (high impact)
[8] = ingredients of the fragrance composition conveying a fresh mood (Table 1)
[9] = ingredients of the fragrance composition conveying an attractive mood (Table 2)
[10] = attractive mood (Table 11), scale 0 (low impact) to 3 (high impact)
[11] = energizing mood (Table 7), scale 0 (low impact) to 3 (high impact)
[12] = fresh mood (Table 12), scale 0 (low impact) to 3 (high impact)
[13] = relaxing mood (Composition 2, Table 4), scale 0 (low impact) to 3 (high impact)
[14] = protective mood (Table 5), scale 0 (low impact) to 3 (high impact)

## COc1ccc(CCC(C)=O)cc1 [FRAMBINON ®, Methoxyphenylbutanone]
subject's mood [1]; [3]
  Actimood score: 3

## Cc1cccc(CC(C)(C)CO)c1 [MAJANTOL ®, beta,beta-3-Trimethyl-benzenepropanol]
subject's mood [1]; [4]
  Actimood score: 2
subject's mood [1]; [5]
  Actimood score: 2

## O=C(OCc1ccccc1)c1ccccc1O [BENZYL SALICYLATE, benzyl 2-hydroxybenzoate]
subject's mood [1]; [4]
  Actimood score: 1

## CC/C=C\CCOC(=O)OC [LEAFOVERT ®, (Z)-Hex-3-en-1-yl methyl carbonate]
subject's mood [1]; [3]
  Actimood score: 3
subject's mood [1]; [4]
  Actimood score: 0
subject's mood [1]; [6]
  Actimood score: 2

## COC(=O)c1c(C)cc(O)c(C)c1O [EVERNYL 10% DPG, Methyl-2,4-dihydroxy-3,6-dimethyl-benzoate]
subject's mood [1]; [7]
  Actimood score: 1

## C=CC(C)(O)CCC=C(C)CC (mixture of isomers) [ETHYL LINALOOL, (6E)-3,7-dimethylnona-1,6-dien-3-ol]
subject's mood [2]; [8]
  IRT Score: 1682
subject's mood [2]; [9]
  IRT Score: 565
subject's mood [1]; [10]
  Actimood score: 2
subject's mood [1]; [11]
  Actimood score: 1
subject's mood [1]; [12]
  Actimood score: 3
subject's mood [1]; [3]
  Actimood score: 2

## CCCCCCCC1CCC(=O)O1 (centres unmarked) [ALDEHYDE C14 SO-CALLED, 5-heptyltetrahydrofuran-2-one]
subject's mood [1]; [4]
  Actimood score: 2

## CC(=O)OC1CCC(C(C)(C)C)CC1 (centres unmarked) [ORYCLON HC, (4-tert-butylcyclohexyl) acetate]
subject's mood [1]; [7]
  Actimood score: 1

## CC(C)(C)c1ccc(CCC=O)cc1 [BOURGEONAL, 3-(4-tert-butylphenyl)propanal]
subject's mood [2]; [9]
  IRT Score: 1045
subject's mood [1]; [10]
  Actimood score: 3
subject's mood [1]; [13]
  Actimood score: 3
subject's mood [1]; [4]
  Actimood score: 2

## CC(CC=O)CCCC(C)(C)O (centres unmarked) [HYDROXY CITRONELLAL, 7-hydroxy-3,7-dimethyl-octanal]
subject's mood [2]; [9]
  IRT Score: 1283
subject's mood [1]; [10]
  Actimood score: 3
subject's mood [1]; [4]
  Actimood score: 1

## CC(C)=CCCC(C)CCO (centres unmarked) [CITRONELLOL 950, 3,7-dimethyloct-6-en-1-ol]
subject's mood [1]; [4]
  Actimood score: 1

## CCCCCCOC(C)=O [HEXYL ACETATE, hexyl acetate]
subject's mood [1]; [11]
  Actimood score: 1
subject's mood [1]; [3]
  Actimood score: 2

## O=C1CCCCCCCCCCCC(=O)OCCO1 [ETHYLENE BRASSYLATE, 1,4-dioxacycloheptadecane-5,17-dione]
subject's mood [2]; [9]
  IRT Score: 1177
subject's mood [1]; [10]
  Actimood score: 3
subject's mood [1]; [7]
  Actimood score: 2
subject's mood [1]; [4]
  Actimood score: 2
subject's mood [1]; [5]
  Actimood score: 3

## CC(C)=CCC/C(C)=C/C=O [CITRAL FF, (2E)-3,7-Dimethylocta-2,6-dienal]
subject's mood [2]; [8]
  IRT Score: 2393
subject's mood [1]; [11]
  Actimood score: 3
subject's mood [1]; [12]
  Actimood score: 3

## C=C1CCC=C(C)CCC2C1CC2(C)C (centres unmarked) [CARYOPHYLLENE NAT. RECT., 4,11,11-trimethyl-8-methylene-bicyclo[7.2.0]undec-4-ene]
subject's mood [1]; [13]
  Actimood score: 3
subject's mood [1]; [4]
  Actimood score: 3

## CCc1ccc(CC(C)(C)C=O)cc1 [FLORALOZONE, 3-(4-ethylphenyl)-2,2-dimethylpropanal]
subject's mood [1]; [12]
  Actimood score: 3

## CCCCC[C@@H]1C(=O)CC[C@H]1CC(=O)OC (racemic) [HEDIONE, methyl-2-[RAC-(1S,2S)-3-oxo-2-pentyl-cyclopentyl]acetate]
subject's mood [1]; [12]
  Actimood score: 2
subject's mood [1]; [3]
  Actimood score: 0
subject's mood [1]; [7]
  Actimood score: 2
subject's mood [1]; [6]
  Actimood score: 0

## CC1COCc2cc3c(cc21)C(C)(C)C(C)C3(C)C (centres unmarked) [GALAXOLIDE PURE, 4,6,6,7,8,8-hexamethyl-1,3,4,7-tetrahydrocyclopenta[G]isochromene]
subject's mood [1]; [14]
  Actimood score: 2
subject's mood [1]; [13]
  Actimood score: 3

## CC/C=C\CCOC(C)=O [HEXENYL ACETATE CIS-3 10% DPG, Hexenyl acetat]
subject's mood [1]; [6]
  Actimood score: 0

## CCCCCCC1OC(=O)CC1C (centres unmarked) [APRIFLOREN ®, 5-Hexyldihydro-4-methylfuran-2(3H)-one]
subject's mood [1]; [3]
  Actimood score: 2
subject's mood [1]; [4]
  Actimood score: 2

## CCC(=O)OCC(C)(C)OC(C)C1CCCC(C)(C)C1 (centres unmarked) [HELVETOLIDE, [2-[1-(3,3-dimethylcyclohexyl)ethoxy]-2-methyl-propyl]propanoate]
subject's mood [1]; [14]
  Actimood score: 2
subject's mood [1]; [7]
  Actimood score: 3
subject's mood [1]; [13]
  Actimood score: 3
subject's mood [1]; [4]
  Actimood score: 2

## CC(=O)C1CC/C(C)=C/CC/C(C)=C/C/C=C/1C (centres unmarked) [TRIMOFIX O, 1-[(2E,5E,9E)-2,6,10-trimethylcyclododeca-2,5,9-trien-1-yl]ethanone]
subject's mood [1]; [14]
  Actimood score: 2

## COC(OC)C(C)(C)CC=C(C)C [AMAROCIT ®, 6,6-Dimethoxy-2,5,5-trimethylhex-2-ene]
subject's mood [2]; [8]
  IRT Score: 1763
subject's mood [1]; [11]
  Actimood score: 3
subject's mood [1]; [12]
  Actimood score: 3

## CCCCCCCCC1CCC(=O)O1 (centres unmarked) [DODECALACTONE GAMMA 10% DPG, gamma-Dodecalactone]
subject's mood [1]; [7]
  Actimood score: 1

## CC(C)CCC1CCC(O)CC1 (centres unmarked) [SYMROSE ®, 4-Isopentylcyclohexanol]
subject's mood [1]; [7]
  Actimood score: 2

## C=CCCCCOC(=O)C(C)CC (centres unmarked) [FRUCTATE ®, Hex-5-enyl 2-methylbutanoate]
subject's mood [1]; [5]
  Actimood score: 0

## CC1=CC(C)C(C=O)CC1 (centres unmarked) [VERTOCITRAL, 2,4-Dimethylcyclohex-3-ene-1-carbaldehyde]
subject's mood [1]; [11]
  Actimood score: 1
subject's mood [1]; [6]
  Actimood score: 0

## O=C1CCCCCCCCCCCCCCO1 [MACROLIDE ® SUPRA, Pentadecan-15-olide]
subject's mood [2]; [9]
  IRT Score: 1944
subject's mood [1]; [10]
  Actimood score: 3
subject's mood [1]; [14]
  Actimood score: 2
subject's mood [1]; [13]
  Actimood score: 3
subject's mood [1]; [6]
  Actimood score: 2

## O=Cc1ccc2c(c1)OCO2 [HELIOTROPIN, 1,3-benzodioxole-5-carbaldehyde]
subject's mood [1]; [6]
  Actimood score: 2

## C=CC(C)CCCC(C)(C)O (centres unmarked) [DIHYDRO MYRCENOL, 2,6-dimethyloct-7-en-2-ol]
subject's mood [2]; [9]
  IRT Score: 1599
subject's mood [1]; [10]
  Actimood score: 3
subject's mood [1]; [11]
  Actimood score: 3
subject's mood [1]; [5]
  Actimood score: 3

## CC/C=C/CCO [HEXENOL CIS-3 10% DPG, Hexenol]
subject's mood [1]; [6]
  Actimood score: 0

## O=C1CCCCCCCC=CCCCCCCO1 [AMBRETTOLIDE HC SUPREME, Oxacycloheptadec-10-en-2-one]
subject's mood [1]; [7]
  Actimood score: 2

## CC(C)C1CC=C(CCC=O)CC1 (single isomer, unassigned; (+)) [LILYBELLE ®, (+)-3-(4-Isopropylcyclohexen-1-yl)propanal]
subject's mood [1]; [12]
  Actimood score: 3
subject's mood [1]; [6]
  Actimood score: 0

## CC(=O)/C=C/C1=C(C)CCCC1(C)C [IONONE BETA, (E)-4-(2,6,6-trimethylcyclohexen-1-yl)but-3-en-2-one]
subject's mood [1]; [3]
  Actimood score: 3
subject's mood [1]; [6]
  Actimood score: 3

## CC(C=O)Cc1ccc(C(C)C)cc1 (centres unmarked) [CYCLAMEN ALDEHYDE, 3-(4-isopropylphenyl)-2-methyl-propanal]
subject's mood [2]; [8]
  IRT Score: 1005
subject's mood [1]; [12]
  Actimood score: 3

## Cc1ccc2c(c1)OCC(=O)CO2 [CALONE, 7-methyl-1,5-benzodioxepin-3-one]
subject's mood [2]; [8]
  IRT Score: 2830
subject's mood [1]; [11]
  Actimood score: 3
subject's mood [1]; [12]
  Actimood score: 3
subject's mood [1]; [3]
  Actimood score: 3
subject's mood [1]; [6]
  Actimood score: 3

## O=c1ccc2ccccc2o1 [COUMARIN, chromen-2-one]
subject's mood [2]; [9]
  IRT Score: 1347
subject's mood [1]; [10]
  Actimood score: 3
subject's mood [1]; [13]
  Actimood score: 3

## CC(=O)/C=C/C1C(C)=CCCC1(C)C (stereo not drawn) [IONONE ALPHA, (E)-4-(2,6,6-trimethylcyclohex-2-en-1-yl)but-3-en-2-one]
subject's mood [1]; [13]
  Actimood score: 3
subject's mood [1]; [4]
  Actimood score: 1

## CC(C=O)Cc1ccc2c(c1)OCO2 (centres unmarked) [3-(1,3-benzodioxol-5-yl)-2-methyl-propanal]
subject's mood [2]; [8]
  IRT Score: 742

## CC(=O)C1(C)CC2=C(CCCC2(C)C)CC1C (centres unmarked) [ISO E SUPER, 1-[2,3,8,8-tetramethyl-1,3,4,5,6,7-hexanhydronaphthalen-2-yl]ethanone]
subject's mood [1]; [3]
  Actimood score: 2
subject's mood [1]; [5]
  Actimood score: 2
subject's mood [1]; [6]
  Actimood score: 2

## COC(=O)c1ccccc1N [METHYL ANTHRANILATE, Methyl anthranilate]
subject's mood [1]; [4]
  Actimood score: 0

## OCCc1ccccc1 [PHENYLETHYL ALCOHOL BA FREE, 2-phenylethanol]
subject's mood [1]; [7]
  Actimood score: 2
subject's mood [1]; [4]
  Actimood score: 1

## CCCC(C)C(=O)OCC (centres unmarked) [MANZANATE, ethyl-2-methylpentanoate]
subject's mood [1]; [3]
  Actimood score: 3
